Experimental data published in patent US20250242040A1, “ALBUMIN CONJUGATE, PREPARATION METHOD THEREFOR AND USE THEREOF” (Suzhou KangDeRui Pharmaceutical, Ltd., priority 2023, published 2025).
Non-standard residues stand in square brackets, D forms with d. Residues, ends and D or L forms follow the SMILES beside them. Dolaproine = CO[C@@H]([C@@H]1CCCN1)[C@@H](C)C(=O)O; Dil = CC[C@H](C)[C@H](NC)[C@@H](CC(=O)O)OC; NMeV = CN[C@H](C(=O)O)C(C)C

Tested on: A-549 cells
Assay: Apoptosis assay of A-549 cells by flow cytometry (in vitro cytotoxic activity)
Assay type: cell-based
Method: The apoptosis of A-549 cells was analyzed by flow cytometry (FIG. 2).

With `CC[C@H](C)[C@@H]([C@@H](CC(=O)N1CCC[C@H]1[C@H](OC)[C@@H](C)C(=O)N[C@@H](Cc1ccccc1)C(=O)O)OC)N(C)C(=O)[C@@H](NC(=O)[C@@H](NC)C(C)C)C(C)C` [MMAF, monomethyl auristatin F] (H-[NMeV]V[Dil][Dolaproine]F-OH) the apoptosis efficiency was 12.3%.
